Test results as given in PMC6863074 (Journal of medicinal chemistry, 2015).
Entries after “also recorded” stand apart in the source; their conditions may differ.

These compounds were tested on S. aureus ATCC 29213 (assay: MIC determination, S. aureus ATCC 29213). Conditions: S. aureus ATCC 29213 MIC screening; active = MIC ≤ 8 μg/mL.

Compound	antibacterial activity (in words)
Nc1c(F)cc(-c2nc(-c3ccc(Oc4ccccc4)cc3)no2)cc1F [73a]	without significant loss of activity
Fc1ccc(-c2nc(-c3ccc(Oc4ccccc4)cc3)no2)cc1 [80a]	loss of activity
CC(C)CNc1c[nH]nc1-c1nc(-c2ccc(Oc3ccc(C(F)(F)F)cc3)cc2)no1 [105b]	did not extend
O=[N+]([O-])c1cc(-c2nc(-c3ccc(Oc4ccc(C(F)(F)F)cc4)cc3)no2)cnc1O [77b]	retained good activity
c1ccc(Oc2ccc(-c3noc(-c4ccncc4)n3)cc2)cc1 [114a]	generally abolish antibacterial activity
Nc1cncc(-c2nc(-c3ccc(Oc4ccc(F)cc4)cc3)no2)c1 [122c]	No activity
Fc1ccc(Oc2ccc(-c3noc(-c4cc[nH]c4)n3)cc2)cc1 [127c]	generally abolish antibacterial activity
FC(F)(F)c1ccc(Oc2ccc(-c3noc(-c4c[nH]cn4)n3)cc2)cc1 [76b, 5-(1H-Imidazol-4-yl)-3-(4-(4-(trifluoromethyl)phenoxy)phenyl)-1,2,4-oxadiazole]	retained good activity
Oc1cc(-c2nc(-c3ccc(Oc4ccccc4)cc3)no2)ccc1I [96a]	failed to show activity
NC(=O)c1ccc(-c2nc(-c3ccc(Oc4ccc(F)cc4)cc3)no2)cc1 [88c]	failed to show activity; also recorded: attenuate or abrogate activity
Oc1ccc(-c2nc(-c3ccc(Oc4ccc(C(F)(F)F)cc4)cc3)no2)cn1 [120b]	No activity
Oc1ccccc1-c1nc(-c2ccc(Oc3ccccc3)cc2)no1 [97a]	failed to show activity
O=[N+]([O-])c1ccc(-c2nc(-c3ccc(Oc4ccccc4)cc3)no2)cc1 [82a]	loss of activity
FC(F)(F)c1ccc(Oc2ccc(-c3noc(-c4ccc(Br)cc4)n3)cc2)cc1 [81b]	loss of activity
Nc1ccc(-c2nc(-c3ccc(Oc4ccc(F)cc4)cc3)no2)cc1 [58c]	no antibiotic activity
Oc1cccc(-c2nc(-c3ccc(Oc4ccccc4)cc3)no2)c1 [95a]	failed to show activity
Oc1ccc(-c2nc(-c3ccc(Oc4ccc(C(F)(F)F)cc4)cc3)no2)cc1O [69b]	retained activity
FC(F)(F)c1ccc(Oc2ccc(-c3noc(-c4nc[nH]n4)n3)cc2)cc1 [116b]	generally abolish antibacterial activity
O=C(Nc1c[nH]nc1-c1nc(-c2ccc(Oc3ccc(C(F)(F)F)cc3)cc2)no1)c1ccccc1 [108b]	did not extend
CC(C)Nc1c[nH]nc1-c1nc(-c2ccc(Oc3ccccc3)cc2)no1 [65a]	active
N#Cc1c[nH]nc1-c1nc(-c2ccc(Oc3ccc(C(F)(F)F)cc3)cc2)no1 [67b]	maintained good activity
FC(F)(F)c1ccc(Oc2ccc(-c3noc(-c4c[nH]c5ncccc45)n3)cc2)cc1 [125b]	No activity
FC(F)(F)c1ccc(Oc2ccc(-c3noc(-c4cn[nH]n4)n3)cc2)cc1 [117b]	generally abolish antibacterial activity
Nc1ccc(-c2nc(-c3ccc(Oc4ccc(C(F)(F)F)cc4)cc3)no2)cc1F [72b]	without significant loss of activity
Nc1cc(-c2nc(-c3ccc(Oc4ccc(C(F)(F)F)cc4)cc3)no2)cnc1O [121b]	No activity
NS(=O)(=O)c1ccc(-c2nc(-c3ccc(Oc4ccc(F)cc4)cc3)no2)cc1 [87c]	attenuate or abrogate activity
COc1cc(-c2nc(-c3ccc(Oc4ccccc4)cc3)no2)ccc1N [94a]	abolish activity

Same assay, conditions: Staphylococcus aureus, ATCC29213|MSSA

Compound	MIC
Brc1c[nH]nc1-c1nc(-c2ccc(Oc3ccccc3)cc2)no1 [61a]	≤ 1 µg/mL
